This note sets out measurements from paper PMC10780011 (2023).

In assay [1] the test system is d(5′-CGCGAATTCGCG-3′)2 (DNA, duplex) CGCGAATTCGCG
Description: ethidium bromide displacement, fluorescence quenching, double-log plot. The following applies: 100 mM phosphate; pH 7.0, 298 K; apparent; ethidium bromide displaced; 20 μM DNA.

Assay [2] has the same test system. Kind of assay: 1H NMR titration, NOESY. To be noted: 100 mM phosphate, pH 7.0, 298 K, H2O:D2O 9:1.

Consider `[Ru+2].[Ru+2].[Ru+2].c1cc[cH-]c1.c1cc[cH-]c1.c1cc[cH-]c1.c1ccc(-c2ccc(-c3ccc(-c4ccccc4)cc3)cc2)cc1`, for which, in assay [1], the Kb is 2.803 ± 0.121 × 10^3 M^−1.
On to `[Ru+2].[Ru+2].c1cc[cH-]c1.c1cc[cH-]c1.c1ccc(-c2ccc(-c3ccc(-c4ccccc4)cc3)cc2)cc1`, for which, in assay [1], the Kb is on record as 5.933 ± 0.001 × 10^3 M^−1. Also, in assay [2] (minor and major groove, non-specific), the binding entry is listed as “yes”.
In the case of `[Ru+2].[Ru+2].c1cc[cH-]c1.c1cc[cH-]c1.c1ccc(-c2ccc(-c3ccccc3)cc2)cc1`, the Kb in assay [1] is 0.815 ± 0.001 × 10^3 M^−1.
Regarding `[Ru+2].c1cc[cH-]c1.c1ccc(-c2ccc(-c3ccc(-c4ccccc4)cc3)cc2)cc1`, the Kb in assay [1] was 8.111 ± 0.001 × 10^3 M^−1. Besides, the binding entry in assay [2] (10 mM NaCl, partial intercalation T7/T8 and groove, precipitates without NaCl) is “yes”.
For the molecule `[Ru+2].c1cc[cH-]c1.c1ccc(-c2ccc(-c3ccccc3)cc2)cc1`, the Kb in assay [1] is listed as 3.532 ± 0.001 × 10^3 M^−1.
On the same count and under the same terms, the figure for `[Ru+2].c1cc[cH-]c1.c1ccc(-c2ccccc2)cc1` is 2.330 ± 0.001 × 10^3 M^−1.
